Laboratory results taken from patent US6046171A, “6,11-bridged erythromycin derivatives” (priority 1998, dated 2000).
≈ marks a conversion by molar mass, not a printed value.

Tests used:
Assay type in all cases: cell-based
[1] = system: Staphylococcus aureus ATCC 6538P; experiment: in vitro antibacterial MIC, agar dilution (BHI agar, Steers replicator); conditions: organism code AA; 35-37° C., 20 to 24 hours; unit assumed
Protocol: (§1) Representative compounds of the present invention were assayed in vitro for antibacterial activity as follows: Twelve petri dishes containing successive aqueous dilutions of the test compound mixed with 10 mL of sterilized Brain Heart Infusion (BHI) agar (Difco 0418-01-5) were prepared. Each plate was inoculated with 1:100 (or 1:10 for slow-growing strains, such as Micrococcus and Streptococcus) dilutions of up to 32 different microorganisms, using a Steers replicator block. […] In addition, a control plate, using BHI agar containing no test compound, was prepared and incubated at the beginning and end of each test.
(§2) An additional plate containing a compound having known susceptibility patterns for the organisms being tested and belonging to the same antibiotic class as the test compound was also prepared and incubated as a further control, as well as to provide test-to-test comparability.
(§3) After incubation, each plate was visually inspected. The minimum inhibitory concentration (MIC) was defined as the lowest concentration of drug yielding no growth, a slight haze, or sparsely isolated colonies on the inoculum spot as compared to the growth control.

[2] = system: Staphylococcus aureus A5177; experiment: in vitro antibacterial MIC, agar dilution; conditions: organism code BB; 35-37° C., 20 to 24 hours; unit assumed
Protocol: as §1, §2, §3

[3] = system: Streptococcus Pheumoniae 5979; experiment: in vitro antibacterial MIC, agar dilution; conditions: organism code ZZ; 35-37° C., 20 to 24 hours; unit assumed
Protocol: as §1, §2, §3

[4] = system: Staphylococcus aureus 1775; experiment: in vitro antibacterial MIC, agar dilution; conditions: organism code GG; 35-37° C., 20 to 24 hours; unit assumed
Protocol: as §1, §2, §3

Escherichia coli JUHL = experiment: in vitro antibacterial MIC, agar dilution; conditions: organism code QQ; 35-37° C., 20 to 24 hours; unit assumed
Protocol: as §1, §2, §3

[5] = system: Enterococcus faecium ATCC 8Q43; experiment: in vitro antibacterial MIC, agar dilution; conditions: organism code II; 35-37° C., 20 to 24 hours; unit assumed
Protocol: as §1, §2, §3

[6] = system: Micrococcus luteus ATCC 9341; experiment: in vitro antibacterial MIC, agar dilution; conditions: organism code OO; 35-37° C., 20 to 24 hours; unit assumed
Protocol: as §1, §2, §3

[7] = system: Streptococcus Pheumoniae 5649; experiment: in vitro antibacterial MIC, agar dilution; conditions: organism code ZZA; 35-37° C., 20 to 24 hours; unit assumed
Protocol: as §1, §2, §3

[8] = system: Streptococcus pyogenes PIU 2548; experiment: in vitro antibacterial MIC, agar dilution; conditions: organism code NN; 35-37° C., 20 to 24 hours; unit assumed
Protocol: as §1, §2, §3

[9] = system: Staphylococcus aureus CMX 553; experiment: in vitro antibacterial MIC, agar dilution; conditions: organism code FF; 35-37° C., 20 to 24 hours; unit assumed
Protocol: as §1, §2, §3

[10] = system: Streptococcus pyogenes EES61; experiment: in vitro antibacterial MIC, agar dilution; conditions: organism code LL; 35-37° C., 20 to 24 hours; unit assumed
Protocol: as §1, §2, §3

Escherichia coli DC-2 = experiment: in vitro antibacterial MIC, agar dilution; conditions: organism code SS; 35-37° C., 20 to 24 hours; unit assumed
Protocol: as §1, §2, §3

[11] = system: Streptococcus bovis A-5169; experiment: in vitro antibacterial MIC, agar dilution; conditions: organism code JJ; 35-37° C., 20 to 24 hours; unit assumed
Protocol: as §1, §2, §3

[12] = system: Nocardia Asteroides ATCC9970; experiment: in vitro antibacterial MIC, agar dilution; conditions: organism code VV; 35-37° C., 20 to 24 hours; unit assumed
Protocol: as §1, §2, §3

[13] = system: Mycobacterium smegmatis ATCC 114; experiment: in vitro antibacterial MIC, agar dilution; conditions: organism code UU; 35-37° C., 20 to 24 hours; unit assumed
Protocol: as §1, §2, §3

[14] = system: Staphylococcus epidermidis 3519; experiment: in vitro antibacterial MIC, agar dilution; conditions: organism code HH; 35-37° C., 20 to 24 hours; unit assumed
Protocol: as §1, §2, §3

[15] = system: Staphylococcus aureus CMX 642A; experiment: in vitro antibacterial MIC, agar dilution; conditions: organism code DD; 35-37° C., 20 to 24 hours; unit assumed
Protocol: as §1, §2, §3

[16] = system: Streptococcus Pheumoniae GYR 1171; experiment: in vitro antibacterial MIC, agar dilution; conditions: organism code YY; 35-37° C., 20 to 24 hours; unit assumed
Protocol: as §1, §2, §3

[17] = system: Staphylococcus aureus A-5278; experiment: in vitro antibacterial MIC, agar dilution; conditions: organism code CC; 35-37° C., 20 to 24 hours; unit assumed
Protocol: as §1, §2, §3

[18] = system: Streptococcus agalactiae CMX 508; experiment: in vitro antibacterial MIC, agar dilution; conditions: organism code KK; 35-37° C., 20 to 24 hours; unit assumed
Protocol: as §1, §2, §3

[19] = system: Micrococcus luteus ATCC 4698; experiment: in vitro antibacterial MIC, agar dilution; conditions: organism code PP; 35-37° C., 20 to 24 hours; unit assumed
Protocol: as §1, §2, §3

[20] = system: Staphylococcus aureus NCTC10649M; experiment: in vitro antibacterial MIC, agar dilution; conditions: organism code EE; 35-37° C., 20 to 24 hours; unit assumed
Protocol: as §1, §2, §3

[21] = system: Haemophilis Influenzae DILL AMP R; experiment: in vitro antibacterial MIC, agar dilution; conditions: organism code WW; 35-37° C., 20 to 24 hours; unit assumed
Protocol: as §1, §2, §3

[22] = system: Streptococcus pyogenes 930; experiment: in vitro antibacterial MIC, agar dilution; conditions: organism code MM; 35-37° C., 20 to 24 hours; unit assumed
Protocol: as §1, §2, §3

Escherichia coli SS = experiment: in vitro antibacterial MIC, agar dilution; conditions: organism code RR; 35-37° C., 20 to 24 hours; unit assumed
Protocol: as §1, §2, §3

[23] = system: Streptococcus Pheumoniae ATCC6303; experiment: in vitro antibacterial MIC, agar dilution; conditions: organism code XX; 35-37° C., 20 to 24 hours; unit assumed
Protocol: as §1, §2, §3

Candida albicans CCH 442 = experiment: in vitro MIC, agar dilution; conditions: organism code TT; 35-37° C., 20 to 24 hours; unit assumed
Protocol: as §1, §2, §3

CC[C@H]1OC(=O)[C@H](C)[C@@H](O[C@H]2C[C@@](C)(OC)[C@@H](O)[C@H](C)O2)[C@H](C)[C@@H](O[C@@H]2O[C@H](C)C[C@H](N(C)C)[C@H]2O)[C@@]2(C)C[C@@H](C)C(=O)[C@H](C)[C@H]3N(CC(=O)CC=CCO2)C(=O)O[C@]13C [Example 20]
MIC [1]: 3.1 µg/mL (≈ 3.63 µM)
MIC [2]: 12.5 µg/mL (≈ 14.7 µM)
MIC [3]: 128 µg/mL (≈ 150 µM)
MIC [4]: > 100 µg/mL
MIC (Escherichia coli JUHL): > 100 µg/mL
MIC [5]: 0.2 µg/mL (≈ 0.234 µM)
MIC [6]: 0.2 µg/mL (≈ 0.234 µM)
MIC [7]: 1 µg/mL (≈ 1.17 µM)
MIC [8]: 25 µg/mL (≈ 29.3 µM)
MIC [9]: 3.1 µg/mL (≈ 3.63 µM)
MIC [10]: 0.2 µg/mL (≈ 0.234 µM)
MIC (Escherichia coli DC-2): > 100 µg/mL
MIC [11]: 0.2 µg/mL (≈ 0.234 µM)
MIC [12]: 0.2 µg/mL (≈ 0.234 µM)
MIC [13]: 0.39 µg/mL (≈ 0.457 µM)
MIC [14]: 3.1 µg/mL (≈ 3.63 µM)
MIC [15]: 3.1 µg/mL (≈ 3.63 µM)
MIC [16]: 0.25 µg/mL (≈ 0.293 µM)
MIC [17]: > 100 µg/mL
MIC [18]: 0.39 µg/mL (≈ 0.457 µM)
MIC [19]: 0.78 µg/mL (≈ 0.914 µM)
MIC [20]: 3.1 µg/mL (≈ 3.63 µM)
MIC [21]: 8 µg/mL (≈ 9.38 µM)
MIC [22]: 100 µg/mL (≈ 117 µM)
MIC (Escherichia coli SS): 3.1 µg/mL (≈ 3.63 µM)
MIC [23]: 0.25 µg/mL (≈ 0.293 µM)
MIC (Candida albicans CCH 442): > 100 µg/mL

CC[C@H]1OC(=O)[C@H](C)C(=O)[C@H](C)[C@@H](O[C@@H]2O[C@H](C)C[C@H](N(C)C)[C@H]2O)[C@@]2(C)C[C@@H](C)C(=O)[C@H](C)[C@H]3N(CCNC(=O)c4ccccc4C=CCO2)C(=O)O[C@]13C [Example 21]
MIC [1]: 1.56 µg/mL (≈ 1.99 µM)
MIC [2]: 1.56 µg/mL (≈ 1.99 µM)
MIC [3]: > 128 µg/mL
MIC [4]: > 100 µg/mL
MIC (Escherichia coli JUHL): > 100 µg/mL
MIC [5]: 0.2 µg/mL (≈ 0.255 µM)
MIC [6]: 0.2 µg/mL (≈ 0.255 µM)
MIC [7]: 2 µg/mL (≈ 2.55 µM)
MIC [8]: 0.78 µg/mL (≈ 0.995 µM)
MIC [9]: 3.1 µg/mL (≈ 3.95 µM)
MIC [10]: 0.1 µg/mL (≈ 0.128 µM)
MIC (Escherichia coli DC-2): > 100 µg/mL
MIC [11]: 0.1 µg/mL (≈ 0.128 µM)
MIC [12]: 0.39 µg/mL (≈ 0.497 µM)
MIC [13]: 6.2 µg/mL (≈ 7.91 µM)
MIC [14]: 1.56 µg/mL (≈ 1.99 µM)
MIC [15]: 3.1 µg/mL (≈ 3.95 µM)
MIC [16]: 0.25 µg/mL (≈ 0.319 µM)
MIC [17]: > 100 µg/mL
MIC [18]: 0.1 µg/mL (≈ 0.128 µM)
MIC [19]: 0.39 µg/mL (≈ 0.497 µM)
MIC [20]: 3.1 µg/mL (≈ 3.95 µM)
MIC [21]: 64 µg/mL (≈ 81.6 µM)
MIC [22]: > 100 µg/mL
MIC (Escherichia coli SS): 1.56 µg/mL (≈ 1.99 µM)
MIC [23]: 0.25 µg/mL (≈ 0.319 µM)
MIC (Candida albicans CCH 442): > 100 µg/mL

CC[C@H]1OC(=O)[C@H](C)[C@@H](O[C@H]2C[C@@](C)(OC)[C@@H](O)[C@H](C)O2)[C@H](C)[C@@H](O[C@@H]2O[C@H](C)C[C@H](N(C)C)[C@H]2O)[C@@]2(C)C[C@@H](C)C(=O)[C@H](C)[C@H]3N(CC=CCO2)C(=O)O[C@]13C [Example 14]
MIC [1]: 0.2 µg/mL (≈ 0.247 µM)
MIC [2]: 3.1 µg/mL (≈ 3.82 µM)
MIC [3]: > 128 µg/mL
MIC [4]: > 100 µg/mL
MIC (Escherichia coli JUHL): 50 µg/mL (≈ 61.7 µM)
MIC [5]: 0.1 µg/mL (≈ 0.123 µM)
MIC [6]: 0.05 µg/mL (≈ 0.0617 µM)
MIC [7]: 16 µg/mL (≈ 19.7 µM)
MIC [8]: 6.2 µg/mL (≈ 7.64 µM)
MIC [9]: 0.2 µg/mL (≈ 0.247 µM)
MIC [10]: 0.05 µg/mL (≈ 0.0617 µM)
MIC (Escherichia coli DC-2): > 100 µg/mL
MIC [11]: 0.05 µg/mL (≈ 0.0617 µM)
MIC [12]: 0.05 µg/mL (≈ 0.0617 µM)
MIC [13]: 0.78 µg/mL (≈ 0.962 µM)
MIC [14]: 0.2 µg/mL (≈ 0.247 µM)
MIC [15]: 0.2 µg/mL (≈ 0.247 µM)
MIC [16]: 0.03 µg/mL (≈ 0.037 µM)
MIC [17]: > 100 µg/mL
MIC [18]: 0.05 µg/mL (≈ 0.0617 µM)
MIC [19]: 0.39 µg/mL (≈ 0.481 µM)
MIC [20]: 0.39 µg/mL (≈ 0.481 µM)
MIC [21]: 8 µg/mL (≈ 9.86 µM)
MIC [22]: > 100 µg/mL
MIC (Escherichia coli SS): 0.78 µg/mL (≈ 0.962 µM)
MIC [23]: 0.03 µg/mL (≈ 0.037 µM)
MIC (Candida albicans CCH 442): > 100 µg/mL
